For assay [1], the target named is Monoamine transporters; serotonin & dopamine (Rattus norvegicus) (UniProt P31652+P23977). Briefly: Selectivity expressed as ratio of affinity for SERT/DAT. It is filed as protein assay.
Assay [2] has as its target Sodium-dependent serotonin transporter (Rattus norvegicus, UniProt P31652). Kind of assay: Binding affinity for serotonin transporter (SERT).
The target of assay [3] is Sodium-dependent dopamine transporter (Rattus norvegicus, UniProt P23977). Briefly: Binding affinity for dopamine transporter (DAT).

From ChEMBL document CHEMBL1136570, “Synthesis and dopamine transporter affinity of chiral 1-[2-[bis(4-fluorophenyl)methoxy]ethyl]-4-(2-hydroxypropyl)piperazines as potential cocaine abuse therapeutic agents” (Bioorg Med Chem Lett, 2003) come the findings set out here.

As a reminder, the Ki is the dissociation constant of the complex between target and ligand, obtained from inhibition or displacement.

Chain of Sodium-dependent serotonin transporter (P31652 whole entry): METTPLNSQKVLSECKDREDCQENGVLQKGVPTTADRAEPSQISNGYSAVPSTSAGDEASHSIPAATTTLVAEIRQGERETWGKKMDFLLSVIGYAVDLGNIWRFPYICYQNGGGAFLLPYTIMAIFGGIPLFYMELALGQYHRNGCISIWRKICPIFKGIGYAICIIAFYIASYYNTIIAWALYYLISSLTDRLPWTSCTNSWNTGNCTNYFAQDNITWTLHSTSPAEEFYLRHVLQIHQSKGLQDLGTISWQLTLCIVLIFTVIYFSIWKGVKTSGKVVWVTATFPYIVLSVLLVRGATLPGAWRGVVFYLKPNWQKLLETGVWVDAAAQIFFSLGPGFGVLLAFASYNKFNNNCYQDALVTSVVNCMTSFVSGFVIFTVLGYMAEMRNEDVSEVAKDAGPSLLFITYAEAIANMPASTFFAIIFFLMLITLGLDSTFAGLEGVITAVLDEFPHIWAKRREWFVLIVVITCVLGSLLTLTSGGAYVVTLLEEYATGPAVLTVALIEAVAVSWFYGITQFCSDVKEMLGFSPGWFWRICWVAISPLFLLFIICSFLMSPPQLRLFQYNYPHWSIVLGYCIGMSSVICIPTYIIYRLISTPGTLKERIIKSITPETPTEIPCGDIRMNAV
Chain of Monoamine transporters; serotonin & dopamine (Rattus norvegicus) (P23977 whole entry, looked up): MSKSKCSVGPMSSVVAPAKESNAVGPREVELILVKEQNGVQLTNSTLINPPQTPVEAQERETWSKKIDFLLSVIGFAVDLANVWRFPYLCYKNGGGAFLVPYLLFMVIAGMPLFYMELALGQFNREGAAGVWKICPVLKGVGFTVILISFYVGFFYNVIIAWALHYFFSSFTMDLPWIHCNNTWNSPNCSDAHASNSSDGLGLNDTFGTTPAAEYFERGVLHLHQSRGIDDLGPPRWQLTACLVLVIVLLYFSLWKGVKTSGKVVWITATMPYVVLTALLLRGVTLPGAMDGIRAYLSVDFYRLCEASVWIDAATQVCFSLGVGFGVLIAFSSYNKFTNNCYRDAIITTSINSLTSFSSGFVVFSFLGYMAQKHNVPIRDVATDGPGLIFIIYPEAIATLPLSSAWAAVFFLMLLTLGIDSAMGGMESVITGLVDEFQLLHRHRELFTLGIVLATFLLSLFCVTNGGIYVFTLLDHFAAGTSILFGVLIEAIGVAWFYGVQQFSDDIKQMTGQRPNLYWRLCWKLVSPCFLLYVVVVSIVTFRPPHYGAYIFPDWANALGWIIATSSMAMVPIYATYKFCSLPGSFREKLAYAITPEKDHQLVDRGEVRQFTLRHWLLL
Chain of Monoamine transporters; serotonin & dopamine (Rattus norvegicus) (P31652 whole entry, looked up): as the sequence (P31652 whole entry) above
Chain of Sodium-dependent dopamine transporter (P23977 whole entry): as the sequence (P23977 whole entry, looked up) above

For the molecule `CC(O)(CN1CCN(CCOC(c2ccc(F)cc2)c2ccc(F)cc2)CC1)c1ccccc1` (racemic), the Ratio in assay [1] is 15. The values for the Ki in assay [2] and in assay [3] were 298 nM and 20 nM, respectively.
For the molecule `O[C@H](Cc1ccccc1)CN1CCN(CCOC(c2ccccc2)c2ccccc2)CC1`, in assay [1], the Ratio worked out at 73.
As to `C[C@H](O)CN1CCN(CCOC(c2ccccc2)c2ccccc2)CC1`, the Ratio in assay [1] worked out at 217. Moreover, the results for the Ki in assay [2] and in assay [3] were 10400 nM and 48 nM, respectively.
As to `C[C@@H](O)[C@H](c1ccccc1)N1CCN(CCOC(c2ccc(F)cc2)c2ccc(F)cc2)CC1`, in assay [1], the Ratio was found to be 43. Further, the Ki in assay [2] worked out at 565 nM; in assay [3], 13 nM.
Regarding `O[C@@H](Cc1ccccc1)CN1CCN(CCOC(c2ccc(F)cc2)c2ccc(F)cc2)CC1`, the Ratio in assay [1] was determined as 307.
`C[C@H](O)[C@@H](c1ccccc1)N1CCN(CCOC(c2ccc(F)cc2)c2ccc(F)cc2)CC1`: in assay [1], the Ratio stood at 16. Moreover, the inhibitory constant (Ki) in assay [2] stood at 583 nM; in assay [3], 36 nM.
The like results for `C[C@@H](O)CN1CCN(CCOC(c2ccc(F)cc2)c2ccc(F)cc2)CC1` were, in that order, 8, 588 nM and 76 nM.
In the case of `OC(Cc1ccccc1)CN1CCN(CCOC(c2ccc(F)cc2)c2ccc(F)cc2)CC1` (racemic), in assay [1], the Ratio is 54.
For `C=CCN1CCN(CCOC(c2ccc(F)cc2)c2ccc(F)cc2)CC1`, the Ratio in assay [1] is 25. The inhibition constant Ki in assay [2] worked out at 1650 nM; in assay [3], 65 nM.
Regarding `C[C@@](O)(CN1CCN(CCOC(c2ccc(F)cc2)c2ccc(F)cc2)CC1)c1ccccc1`, the Ratio in assay [1] is 50. Besides, the Ki in assay [2] is 281 nM; in assay [3] it was 5.6 nM.
The like results for `CCCN1CCN(CCOC(c2ccc(F)cc2)c2ccc(F)cc2)CC1` were, in that order, 22, 888 nM and 40 nM.
Turning to `C[C@H](O)CN1CCN(CCOC(c2ccc(F)cc2)c2ccc(F)cc2)CC1`, the Ratio in assay [1] is 43. Besides, the Ki in assay [2] came to 981 nM; in assay [3], 23 nM.
Turning to `O[C@@H](Cc1ccccc1)CN1CCN(CCOC(c2ccccc2)c2ccccc2)CC1`, in assay [1], the Ratio is 939.
In the case of `CCN1CCN(CCOC(c2ccc(F)cc2)c2ccc(F)cc2)CC1`, the Ratio in assay [1] worked out at 61. For the same molecule, the values for the Ki in assay [2] and in assay [3] were 2090 nM and 34 nM, respectively.
Consider `C[C@](O)(CN1CCN(CCOC(c2ccc(F)cc2)c2ccc(F)cc2)CC1)c1ccccc1`, for which the Ratio in assay [1] was 4. The values for the inhibitory constant (Ki) in assay [2] and in assay [3] were 520 nM and 140 nM, respectively.
Consider `C[C@@H](O)CN1CCN(CCOC(c2ccccc2)c2ccccc2)CC1`, for which, in assay [1], the Ratio was 293. In addition, the results for the Ki in assay [2] and in assay [3] were 12900 nM and 44 nM, respectively.
For `O[C@H](Cc1ccccc1)CN1CCN(CCOC(c2ccc(F)cc2)c2ccc(F)cc2)CC1`, the Ratio in assay [1] was 14.
